Data taken from PubChem BioAssay (NCI).
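Test compounds were applied to cells in 96-well plates for 48 hours at 5 doses. TGI: total growth inhibition.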

What was measured:
Assay in all cases: inhibition of tumour cell growth, NCI panel, 48 h
[1] = test system: A549 NSCLC
[2] = test system: ACHN renal
[3] = test system: BT-549 breast
[4] = test system: EKVX NSCLC
[5] = test system: HT29 colon
[6] = test system: KM12 colon
[7] = test system: PC-3 prostate
[8] = test system: SK-MEL-2 melanoma
[9] = test system: SK-MEL-28 melanoma
[10] = test system: SNB-75 CNS
[11] = test system: T-47D breast
[12] = test system: TK-10 renal
[13] = test system: UACC-62 melanoma
[14] = test system: CAKI-1 renal
[15] = test system: UACC-257 melanoma
[16] = test system: SR leukemia

Row | Compound | TGI [1] | TGI [2] | TGI [3] | TGI [4] | TGI [5] | TGI [6] | TGI [7] | TGI [8] | TGI [9] | TGI [10] | TGI [11] | TGI [12] | TGI [13] | TGI [14] | TGI [15] | TGI [16]
1 | c1ccc2c(c1)ncn2CCn1ccnc1 | > 100 µM | > 100 µM | > 100 µM | > 100 µM | > 100 µM | > 100 µM | > 100 µM | > 100 µM | > 100 µM | > 100 µM | > 100 µM | > 100 µM | > 100 µM |  |  | 
2 | N#Cc1nc(-c2ccccc2O)oc1N | > 100 µM | > 100 µM |  | > 100 µM | > 100 µM | > 100 µM | > 100 µM | > 100 µM | > 100 µM |  |  | > 100 µM | > 100 µM | > 100 µM | > 100 µM | 
3 | CC(=O)n1cc(CC(C)O)c(=O)[nH]c1=O (stereo not given) | > 100 µM | > 100 µM |  | > 100 µM | > 100 µM | > 100 µM |  | > 100 µM | > 100 µM | > 100 µM |  | > 100 µM | > 100 µM | > 100 µM | > 100 µM | > 100 µM
4 | CC(C)(C)c1cc(Oc2ccc(C#N)c(C#N)c2)cc(C(C)(C)C)c1 | > 100 µM | > 100 µM |  | > 100 µM | > 100 µM | > 100 µM |  | > 100 µM | > 100 µM | > 100 µM |  | > 100 µM | > 100 µM | > 100 µM | > 100 µM | 42.3 µM
5 | CCOC(=O)c1ncn2c1[nH]c(=O)c1ccccc12 | > 100 µM | > 100 µM |  | > 100 µM | > 100 µM | > 100 µM |  | > 100 µM | > 100 µM | > 100 µM |  | > 100 µM | > 100 µM |  |  | > 100 µM
6 | Nc1ncnc2c1ccn2CC=C(CO)CO | > 100 µM | > 100 µM | > 100 µM | > 100 µM | > 100 µM | > 100 µM | > 100 µM | > 100 µM | > 100 µM | > 100 µM | > 100 µM | > 100 µM | > 100 µM | > 100 µM | > 100 µM | 
7 | CC(C)[Si](Oc1cc2c3c(ccc2c(O)c1[C@@H](C)CO[Si](C)(C)C(C)(C)C)C(C)(C)CCC3)(C(C)C)C(C)C | > 100 µM | > 100 µM |  | > 100 µM | > 100 µM | > 100 µM | > 100 µM | > 100 µM | > 100 µM | > 100 µM |  | > 100 µM | > 100 µM | > 100 µM | > 100 µM | > 100 µM
8 | CCOC(=O)C(Cc1ccc2c(c1)CCC2)Cc1ccc2c(c1)CCC2 | > 100 µM | > 100 µM |  | > 100 µM | > 100 µM |  | > 100 µM | > 100 µM | > 100 µM | > 100 µM | > 100 µM | > 100 µM |  | > 100 µM | > 100 µM | 60.1 µM
9 | OC1=CN=C(C2CC2)Oc2ccccc21 | > 100 µM | > 100 µM |  | > 100 µM | > 100 µM | > 100 µM |  | > 100 µM | > 100 µM | > 100 µM |  | > 100 µM | > 100 µM |  | > 100 µM | 
